Measurements reported in patent publication US11752156B2, “Compositions and methods for treating hyperproliferative skin disorders” (Athenex HK Innovative Limited, priority 2018, dated 2023).
“And” between values parts separate entries of the source, which are not always exact repeats. Equal values may be shown once. Read-outs that look alike come from different tables or passages of the source.

Key:
[1] = test system: human keratinocytes in culture (cell line CCD-1106 KERTr); experiment: cell viability / cell growth of human keratinocytes in culture, KX01, calcipotriol and fixed-ratio combinations; type: cell-based; design: cell growth (cell viability): unit not given here
Text: Typical data from studies of the effects of compound KX01 provided in combination with calcipotriol on growth of human keratinocytes in culture (cell line CCD-1106 KERTr) are shown in FIGS. 1 to 3 and Tables 1 to 6. FIG. 1 and Tables 1 and 2 show the degree of growth inhibition found in a typical study performed with KX01 and calcipotriol at a 1:5 ratio.

CCD-1106 KERTr cells = experiment: FITC annexin V / PI apoptosis assay by flow cytometry, 24 hours; type: cell-based, human; conditions: for late apoptic cells: 24 hours
Experimental: In addition to growth inhibition, Inventors also investigated the effect of KX01 on apoptosis in keratinocytes. CCD-1106 KERTr cells (1×10^6) were seeded in 60 mm dishes and treated with test compounds at varying concentrations (e.g. KX01: 20 to 500 nM; calcipotriol 50 to 1000 nM) for 24 hours. Cell apoptosis was assessed by using a FITC annexin V apoptosis detection kit (BD Biosciences™) according to manufacturer's instruction. Briefly, cells were collected in 1× binding buffer and incubated with fluorescein isothiocyanate (FITC)-conjugated annexin V and propidium iodide (PI) for 15 minutes at room temperature in the dark, followed by flow cytometry analysis using a LSRFortessa™ flow cytometer (BD Biosciences™).

[2] = test system: CCD 1106 KERTr human keratinocyte cell line; experiment: MTT cell proliferation assay, 72 hours, dark or blue light, keratinocytes; type: cell-based; conditions: for inhibition at 0.005 µM / inhibition at 0.02 µM / inhibition at 0.08 µM / inhibition at 0.32 µM / inhibition at 1.28 µM: Homo sapiens, read-out: growth inhibition relative to untreated control
Experimental: The effects of combined treatment with KX01, a vitamin D derivative, and/or blue/UV light exposure were characterized using a cell proliferation assay. Cell proliferation was assessed by using an MTT assay. Cells were seeded in 96-well plate (3,000-5,000 cells per well) and treated with test compounds at varying concentrations (e.g. KX01: 5 to 80 nM; calcipotriol 5 to 1,280 nM) for 72 hours, either in the dark or exposed to blue light irradiation (for 2, 4, or 6 hours). To each well, 10 μl of 3-(4,5-dimethylthiazol-2-yl)-2,5-diphenyltetrazolium bromide (MTT) (RPI Corporation™) solution (5 mg/ml in PBS) was added and incubated at 37° C. for 3 hours. Next, 100 μl of 20% SDS was added to each well. After overnight incubation at 37° C., the absorbance in each well was measured at 570 nm in a microplate reader (Molecular Devices™). The cell growth curve and GI50s were calculate using GraphPad Prism™ 5 software. Tables 13 and 14 show the results of cell growth inhibition studies (expressed as a percentage relative to control cell growth) for treatment with either KX01 or calcipotriol in combination with exposure to blue light. […] The percentage of growth inhibition relative to untreated control is shown. […] The percentage of growth inhibition relative to untreated control is shown. Tables 15 to 18 show the effects of combined treatment with KX01, calcipotriol, and exposure to blue light at 0 hours, 2 hours, 4 hours, and 6 hours of light exposure (respectively). Values are expressed as the percentage of growth inhibition relative to cells grown under control conditions (0 hours blue light, [KX01]=0, [calcipotriol]=0). […] Results are shown below in Tables 27 to Table 30, which show results from 0, 2, 4, and 6 hours of blue light exposure (respectively). Values are expressed as the percentage of growth inhibition relative to cells grown under control conditions (0 hours blue light, [KX01]=0, [calcipotriol]=0).

Q: Which results are given for C=C1/C(=C\C=C2/CCC[C@]3(C)[C@@H]([C@H](C)/C=C/[C@@H](O)C4CC4)CC[C@@H]23)C[C@@H](O)C[C@@H]1O [Calcipotriol, calcipotriol]?
A: GI50 [1]: 310 nM and 339 nM; GI50 ([1]; Homo sapiens, CCD-1106): 265 nM; viability at 0.003 µM ([1]; Homo sapiens, CCD-1106, concentration 3 nM): 94%; viability at 0.009 µM ([1]; Homo sapiens, CCD-1106, concentration 9 nM): 89.9%; viability at 0.027 µM ([1]; Homo sapiens, CCD-1106, concentration 27 nM): 70.5%; viability at 0.081 µM ([1]; Homo sapiens, CCD-1106, concentration 81 nM): 49.4%; viability at 0.243 µM ([1]; Homo sapiens, CCD-1106, concentration 243 nM): 47.3%; viability at 0.729 µM ([1]; Homo sapiens, CCD-1106, concentration 729 nM): 47%; viability at 2.187 µM ([1]; Homo sapiens, CCD-1106, concentration 2187 nM): 44.8%; viability at 6.561 µM ([1]; Homo sapiens, CCD-1106, concentration 6561 nM): 19.2%; cell growth (cell viability) ([1]; concentration 3 nM, 0.003 µM): 95.3 and 96.1; cell growth (cell viability) ([1]; concentration 9 nM, 0.009 µM): 88.8 and 89.7; cell growth (cell viability) ([1]; concentration 27 nM, 0.027 µM): 72.5 and 70.1; cell growth (cell viability) ([1]; concentration 81 nM, 0.081 µM): 53.2 and 52.8; cell growth (cell viability) ([1]; concentration 243 nM, 0.243 µM): 47.7 and 51.0; cell growth (cell viability) ([1]; concentration 729 nM, 0.729 µM): 47.1 and 48.7; cell growth (cell viability) ([1]; concentration 2187 nM, 2.187 µM): 46.7 and 48.3; cell growth (cell viability) ([1]; concentration 6561 nM, 6.561 µM): 25.2 and 26.5; effect on apoptosis compared with control cells (CCD-1106 KERTr cells; 200 nm calcipotriol): not distinguishable from that of control cells receiving no drug treatment; late apoptic cells (CCD-1106 KERTr cells; calcipotriol 50 nM): 2.41%; late apoptic cells (CCD-1106 KERTr cells; calcipotriol 200 nM): 2.06%; late apoptic cells (CCD-1106 KERTr cells; calcipotriol 500 nM): 4.13%; late apoptic cells (CCD-1106 KERTr cells; calcipotriol 1,000 nM): 4.19%; inhibition at 0.005 µM ([2]; CCD-1106, 0 h, calcipotriol 5 nM, blue light 0 h): 9%; inhibition at 0.02 µM ([2]; CCD-1106, 0 h, calcipotriol 20 nM, blue light 0 h): 24%; inhibition at 0.08 µM ([2]; CCD-1106, 0 h, calcipotriol 80 nM, blue light 0 h): 45%; inhibition at 0.32 µM ([2]; CCD-1106, 0 h, calcipotriol 320 nM, blue light 0 h): 48%; inhibition at 1.28 µM ([2]; CCD-1106, 0 h, calcipotriol 1,280 nM, blue light 0 h): 43%; inhibition at 0.005 µM ([2]; CCD-1106, 2 h, calcipotriol 5 nM, blue light 2 h): 32%; inhibition at 0.02 µM ([2]; CCD-1106, 2 h, calcipotriol 20 nM, blue light 2 h): 39%; inhibition at 0.08 µM ([2]; CCD-1106, 2 h, calcipotriol 80 nM, blue light 2 h): 55%; inhibition at 0.32 µM ([2]; CCD-1106, 2 h, calcipotriol 320 nM, blue light 2 h): 66%; inhibition at 1.28 µM ([2]; CCD-1106, 2 h, calcipotriol 1,280 nM, blue light 2 h): 62%; inhibition at 0.005 µM ([2]; CCD-1106, 4 h, calcipotriol 5 nM, blue light 4 h): 53%; inhibition at 0.02 µM ([2]; CCD-1106, 4 h, calcipotriol 20 nM, blue light 4 h): 58%; inhibition at 0.08 µM ([2]; CCD-1106, 4 h, calcipotriol 80 nM, blue light 4 h): 70%; inhibition at 0.32 µM ([2]; CCD-1106, 4 h, calcipotriol 320 nM, blue light 4 h): 71%; inhibition at 1.28 µM ([2]; CCD-1106, 4 h, calcipotriol 1,280 nM, blue light 4 h): 69%; inhibition at 0.005 µM ([2]; CCD-1106, 6 h, calcipotriol 5 nM, blue light 6 h): 56%; inhibition at 0.02 µM ([2]; CCD-1106, 6 h, calcipotriol 20 nM, blue light 6 h): 59%; inhibition at 0.08 µM ([2]; CCD-1106, 6 h, calcipotriol 80 nM, blue light 6 h): 71%; inhibition at 0.32 µM ([2]; CCD-1106, 6 h, calcipotriol 320 nM, blue light 6 h): 72%; inhibition at 1.28 µM ([2]; CCD-1106, 6 h, calcipotriol 1,280 nM, blue light 6 h): 66%; growth inhibition relative to untreated control ([2]; calcipotriol 5 nM, blue light 0 h): 6%; growth inhibition relative to untreated control ([2]; calcipotriol 5 nM, blue light 2 h): 33%; growth inhibition relative to untreated control ([2]; calcipotriol 5 nM, blue light 4 h): 47%; growth inhibition relative to untreated control ([2]; calcipotriol 5 nM, blue light 6 h): 51%; growth inhibition relative to untreated control ([2]; calcipotriol 20 nM, blue light 0 h): 17%; growth inhibition relative to untreated control ([2]; calcipotriol 20 nM, blue light 4 h): 52%; growth inhibition relative to untreated control ([2]; calcipotriol 80 nM, blue light 0 h): 35%; growth inhibition relative to untreated control ([2]; calcipotriol 80 nM, blue light 4 h): 64%; growth inhibition relative to untreated control ([2]; calcipotriol 80 nM, blue light 6 h): 67%; growth inhibition relative to untreated control ([2]; calcipotriol 320 nM, blue light 2 h): 60%; growth inhibition relative to untreated control ([2]; calcipotriol 320 nM, blue light 4 h): 67%; growth inhibition relative to untreated control ([2]; calcipotriol 1,280 nM, blue light 0 h): 37%; growth inhibition relative to untreated control ([2]; calcipotriol 1,280 nM, blue light 4 h): 63%; growth inhibition relative to untreated control ([2]; calcipotriol 1,280 nM, blue light 6 h): 67%; effect of blue light exposure with the drug on cell growth inhibition ([2]; for example 6 hours of blue light with 10 nm KX01): Synergistic effects
